One data set addresses T1, PPARα (Homo sapiens, UniProt Q07869).
T1 construct: expressed in transfected cells; host or cells: HepG2
T1 sequence (Q07869 239-466 limits assumed): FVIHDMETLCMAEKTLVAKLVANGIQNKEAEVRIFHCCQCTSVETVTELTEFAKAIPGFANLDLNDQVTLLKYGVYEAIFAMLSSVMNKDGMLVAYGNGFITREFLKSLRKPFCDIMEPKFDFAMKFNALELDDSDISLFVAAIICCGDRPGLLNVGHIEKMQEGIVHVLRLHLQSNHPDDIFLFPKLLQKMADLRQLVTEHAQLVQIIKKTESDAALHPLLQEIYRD
Kind of data set: PPARα transactivation on HepG2 cells (GAL4 LBD reporter). The data set is classed as cell-based. The following applies: 10 μM. The protocol:
(§1) To evaluate LXRα and LXRβ mediated transactivation, HepG2 cells were transfected with 200 ng of the reporter vector p(UAS)5XTKLuc, 100 ng of a vector containing the ligand binding domain of LXRα or LXRβ cloned upstream of the GAL4-DNA binding domain (i.e., pSG5-LXRαLBD-GAL4DBD or pSG5-LXRβLBD-GAL4DBD) and 100 of pGL4.70 Renilla. At 24 h post-transfection, cells were stimulated 18 h with 10 μM compound 2 and GW3965 (GW, 10 μM) was used as positive control. To investigate the PPARα and PPARγ mediated transactivation, HepG2 cells were transiently transfected with 200 ng reporter vector p(UAS)9XTKLuc, 100 ng of a vector containing the ligand binding domain of PPARα or PPARγ cloned upstream of the GAL4-DNA binding domain (i.e., pSG5- PPARαLBD-GAL4DBD or pSG5- PPARγLBD-GAL4DBD) and 100 of pGL4.70 Renilla. For PPARα transactivation, cells were stimulated with 10 μM compound 2 and gemfibrozil (GEM, 10 μM) was used as positive control. For PPARγ transactivation, cells were stimulated with 10 μM compound 2 and rosiglitazone (ROSI, 100 nM) was used as a positive control. Luciferase activities were assayed and normalized with Renilla activities.

The target of another data set is T2, PPARγ (Homo sapiens, UniProt P37231).
T2 construct: expressed in transfected cells; host or cells: HepG2
T2 sequence (P37231 238-503 limits assumed): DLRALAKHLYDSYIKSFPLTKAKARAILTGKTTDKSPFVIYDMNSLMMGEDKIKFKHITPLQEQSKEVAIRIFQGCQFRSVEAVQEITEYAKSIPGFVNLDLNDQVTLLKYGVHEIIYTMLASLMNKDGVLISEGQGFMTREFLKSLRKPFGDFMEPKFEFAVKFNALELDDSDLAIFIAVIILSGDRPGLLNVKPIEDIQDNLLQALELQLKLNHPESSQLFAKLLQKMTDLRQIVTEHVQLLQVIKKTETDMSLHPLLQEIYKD
The experiment in a line: PPARγ transactivation on HepG2 cells (GAL4 LBD reporter). The following applies: 10 μM. Type of data set: cell-based. The protocol:
as §1

Another data set has as its target T3, LXRβ (Homo sapiens, UniProt P55055).
T3 construct: expressed in transfected cells; host or cells: HepG2
T3 sequence (P55055 222-460 limits assumed): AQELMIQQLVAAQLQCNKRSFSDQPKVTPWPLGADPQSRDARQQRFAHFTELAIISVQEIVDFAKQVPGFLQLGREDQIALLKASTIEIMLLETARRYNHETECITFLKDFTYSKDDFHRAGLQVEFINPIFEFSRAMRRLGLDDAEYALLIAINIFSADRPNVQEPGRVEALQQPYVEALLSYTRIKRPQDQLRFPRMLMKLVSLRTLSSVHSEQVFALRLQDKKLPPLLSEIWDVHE
The experiment in a line: LXRβ transactivation on HepG2 cells (GAL4 LBD reporter). The data set is classed as cell-based. Particulars: 10 μM. The protocol:
as §1

Data set [1] has as its system FXR target genes in liver. Kind of data set: Hepatic FXR target gene expression in C57BL6 mice (RT-PCR). The data set is classed as in vivo. The following applies: 50 mg/kg per os, p < 0.05 versus control mice. The protocol:
HepG2 cells were plated at 1 × 10^6 cells/well in a six well plate. After an overnight incubation, cells were starved and then stimulated for 18 h with compound 2 at 1 μM. Total RNA was isolated from HepG2 cells or liver tissues using the TRIzol reagent according to the manufacturer’s specifications (Invitrogen). One microgram of purified RNA was treated with DNase-I and reverse transcribed with Superscript II (Invitrogen). For Real Time PCR, 10 ng template was dissolved in 25 μL containing 200 nmol/L of each primer and 12.5 μL of 2× SYBR FAST Universal ready mix (Invitrogen). All reactions were performed in triplicate, and the thermal cycling conditions were as follows: 2 min at 95°C, followed by 40 cycles of 95°C for 20 s and 60°C for 30 s in StepOnePlus (Applied Biosystems). The relative mRNA expression was calculated accordingly to the Ct method. Primers were designed using the software PRIMER3^1 using published data obtained from the NCBI database. Forward and reverse primer sequences were the following: human GAPDH, […] and […]; human BSEP, […] and […]; human OSTα, […] and […]; human SHP, […] and […]; mouse NTCP, […] and […]; mouse CYP7A1, […] and […]; mouse FGF21, […] and […]; mouse GAPDH, […] and […]; mouse BSEP, […] and […]; mouse OSTα, […] and […]; mouse SHP, […] and […].
C57BL6 male mice were from Harlan Nossan (Udine, Italy). The colonies were maintained in the animal facility of University of Perugia. Mice were housed under controlled temperatures (22 °C) and photoperiods (12:12-hour light/dark cycle), allowed unrestricted access to standard mouse chow and tap water and allowed to acclimate to these conditions for at least 5 days before inclusion in an experiment. A total number of eight mice were used in this study. The study was conducted in agreement with the Italian law and the protocol was approved by Ethical Committee of University of Perugia and by a National Committee of Ministry of Health (permission N° 42/2014 B). The health and body conditions of the animals were monitored daily by the veterinarian in the animal facility. At the day of sacrifice mice were deeply anesthetized with a mixture of […]/xylazine at a dose of 50 mg/Kg.

The conditions of data set [2]: mouse, in vivo, po, 50 mg/kg.

With `CC[C@H]1[C@@H](O)[C@@H]2[C@H](CC[C@]3(C)[C@@H]([C@H](C)CCC(=O)O)CC[C@@H]23)[C@@]2(C)CC[C@H](N=[N+]=[N-])C[C@@H]12` [compound 2, 3β-azido-6α-ethyl-7α-hydroxy-5β-cholan-24-oic acid], the PPARα transactivation entry on PPARα is “unable in inducing”. The PPARγ transactivation entry at PPARγ is “unable in inducing”. Moreover, the LXRβ transactivation result at LXRβ is recorded as “unable in inducing”. Besides, in data set [1], the “relative hepatic mRNA expression of BSEP” value is given as “significantly up-regulated”, the “relative hepatic mRNA expression of CYP7A1” value is given as “downregulated”, the “relative hepatic mRNA expression of FGF21” value was “significantly up-regulated” and the “relative hepatic mRNA expression of OSTα” value is listed as “significantly up-regulated”. Besides, the “relative hepatic mRNA expression of SHP” value in data set [1] is on record as “significantly up-regulated”. Further, the “liver metabolism / tauro-conjugation” value in data set [2] is recorded as “extensive liver metabolism”.

The record behind these values is paper PMC5371667, “Targeting Bile Acid Receptors: Discovery of a Potent and Selective Farnesoid X Receptor Agonist as a New Lead in the Pharmacological Approach to Liver Diseases” (Frontiers in Pharmacology, 2017).
